Data on 2 substances can be found in patent US20250017964A1, “ENGINEERING OR INDUCING PDGF AND/OR PDGFR SIGNALING TO ENHANCE NK CELL THERAPY” (City of Hope, priority 2021, published 2025).

One test has as its system murine NK cells. Nature of the test: PDGFRβ expression in murine splenic NK cells, flow cytometry. Format: cell-based, mouse. On the procedure: FIGS. 7A-7F. […] Data shown are representative histograms and mean fluorescence intensity (MFI) of PDGFRα. […] Expression levels of PDGFRβ were examined by flow cytometry (n=6). […] Data shown are the percentages of PDGFRβ^+ NK cells among total NK cells (n=5). […] Data shown are representative histograms with MFI of PDGFRβ expression. (F) Expression levels of PDGFRβ on NK cells from IL-15 transgenic (Tg) mice were determined by flow cytometry. Data shown are representative histograms. Data represent three independent experiments.
Mouse NK cells were isolated from the spleen of C57BL/6J or IL-15 transgenic mice, using the EasySep Mouse NK Cell Isolation Kit ([…] Technologies) as previously described (11).
Cells were stained with the indicated cell-surface markers and/or fixed/permeabilized using a Fixation/Permeabilization Kit (eBioscience). For intracellular staining of IFN-γ and PDGF-D, 5 μg/ml Brefeldin A (BioLegend) was added for 4 h before cell harvest. Intracellular staining of Ki67 was performed by fixing and permeabilizing with the Foxp3/Transcription Factor Staining Kit (eBioscience). […] Data were analyzed using NovoExpress software (Agilent Technologies).
(A flow cytometer gives signals particle by particle.)

For a further test, the system named is PDGF-D promoter. Nature of the test: ChIP-qPCR, binding of p65 to the PDGF-D promoter. As to conditions: IL-15-stimulated NK cells (1 h); not in resting NK cells. Format: cell-based, human. As for the experimental part:
(§1) FIGS. 5A-5J. IL-15 induces PDGF-D expression in an autocrine manner. (A) mRNA levels of PDGFA, PDGFB, PDGFC, and PDGF-D in T cells, B cells, and NK cells were analyzed using the BioGPS online tool. (B) mRNA levels of PDGFA, PDGFB, PDGFC, and PDGF-D in T cells, B cells, and NK cells were examined by qPCR (n=10). (C) Primary NK cells were treated with IL-15 (10 ng/ml) for the indicated times. mRNA levels of PDGF-D were examined by qPCR (n=3). (D-E) Representative dot plots and percentages of PDGF-D levels in NK cells after IL-15 (50 ng/ml) treatment for 24 h. Resting NK cells were used as control (n=5). […] (I-J) Binding of p65 to the PDGF-D promoter in IL-15 treated (I) or resting NK cells (J) as determined by ChIP-qPCR (n=3). Data represent three independent experiments. Data shown are means±SD. NS, not significant, *P<0.05, **P<0.01, ***P<0.001, and ****P<0.0001.
Primary NK cells were treated with IL-15 for 1 h. The cells were cross-linked in 1% formaldehyde and quenched with glycine buffer. ChIP assays were carried out using a Pierce Magnetic ChIP Kit (Cat No.26157, Thermo Scientific) according to the manufacturer's instructions. Digested chromatin was incubated overnight with a p65 ChIP-grade antibody (#8242, Cell Signaling Technology) or IgG control antibody (#3900, Cell Signaling Technology). The enriched chromatin was analyzed by qPCR using the following primers: […]

The next test concerns PDGF-D. Nature of the test: PDGF-D expression in NK cells (qPCR, flow cytometry, immunoblotting, ELISA). Format: cell-based, human. On the procedure: as §1, with “NS, not significant, *P<0.05, **P<0.01, ***P<0.001, and ****P<0.0001.” left out
Cells were stained with the indicated cell-surface markers and/or fixed/permeabilized using a Fixation/Permeabilization Kit (eBioscience). […] Data were analyzed using NovoExpress software (Agilent Technologies).
RNA was isolated using an RNeasy Mini Kit (QIAGEN) and reversely transcribed to cDNA with a PrimeScript RT Reagent Kit with gDNA Eraser (Takara Bio) according to the manufacturer's protocol. mRNA expression levels were analyzed using SYBR Green qPCR Master Mix and a QuantStudio 12K Flex Real-Time PCR System (both from Thermo Fisher Scientific). […]

In a further test the test system is NK cells. Nature of the test: NK cell expansion in vitro, cell counts by trypan blue exclusion. Format: cell-based, human. The following applies: 7 days.
The test system of another test is BCL-2, BCL-XL, and MCL-1. In words: Immunoblot of BCL-2, BCL-XL and MCL-1 in NK cells. Format: cell-based, human. As to conditions: 48 h. On the technique in general: In western blotting, separated proteins are transferred to a membrane and probed.

As for “IL-15: recombinant human IL-15 (200-15); recombinant murine IL-15 in the mouse NK cell test”, the “PDGFRβ on NK cells from IL-15 transgenic mice” value in the test with murine NK cells (long-term IL-15 stimulation, IL-15 transgenic mice) is given as “could not detect any PDGFRβ”. In the test on murine NK cells (splenic NK cells of C57BL/6 mice, mouse cytokines 10 ng/ml, 24 h), the “PDGFRβ expression in murine NK cells” value is listed as “did not express PDGFRβ”. Also, the “p65 enrichment at the PDGF-D promoter versus normal IgG control” value with PDGF-D promoter is reported as “significantly enriched”. The “mRNA levels of PDGF-D in NK cells” value in the test with PDGF-D (IL-15 10 ng/ml, qPCR) was “significantly increased”. Also, in the test with PDGF-D (IL-15 50 ng/ml 24 h, flow cytometry, immunoblotting, ELISA), the “protein levels of PDGF-D in NK cells” value is given as “significantly increased”.
“PDGF-D: recombinant human PDGF-DD (1159-SB-025), R&D Systems”: the “expansion of primary NK cells transduced with PDGFRβ” value with NK cells (IL-2 50 U/ml and PDGF-D 50 ng/ml) is recorded as “enhanced the expansion”. For the same substance, in the test with NK cells (primary NK cells, IL-15 10 ng/ml and PDGF-D 50 ng/ml), the NK cell expansion result is given as “promoted cell expansion”. The “expression levels of BCL-2, BCL-XL, and MCL-1” value with BCL-2, BCL-XL, and MCL-1 (IL-15 10 ng/ml and PDGF-D 50 ng/ml) is “increased the expression levels”. Also, the “receptor dependence of the BCL-2, BCL-XL, and MCL-1 increase” value with BCL-2, BCL-XL, and MCL-1 (with anti-NKp44 or anti-PDGFRβ) is on record as “NKp44-independent but PDGFRβ-dependent”.
